Reference: patent US6596759B2, “Medicament for treatment of irritable bowel syndrome” (Mitsubishi Chemical Corporation, priority 1997, dated 2003)
Entries after “also recorded” stand apart in the source; their conditions may differ. Marks after values point to notes of the source that are not given here.

Key:
[1] = system: defecation number induced by restraint stress in rats; test: Increase of defecation number induced by restraint stress (animal model of irritable bowel syndrome); assay type: in vivo; settings: rat; for Effect on the defecation-suppressing action of the medicament of the present invention (combination of drugs): other drug given 1 hour, medicament 30 minutes before the restraint, FIG. 1; for Suppression of the increase of defecation number induced by the restraint (in words): over the doses of Table 3; for Suppressive action on stress-induced defecation at a high dose (in words): high dose (amitriptyline 100 mg/kg, diazepam 30 mg/kg)
Experimental: Increase of defecation number induced by restraint stress has widely been used as a pathological model of irritable bowel syndrome (Miyata et al., J. Pharmacol. Exp. Ther., 261, pp.297-303, 1992). Therefore, pathological model animals of irritable bowel syndrome were prepared according to the method of Williams et al. (Williams et al., Gastroenterology, 94, pp.611-621, 1988) and used for evaluation of the effectiveness of the medicament of the present invention. The medicament of the present invention was administered to the rats, and after 1 hour, their forelegs were fixed on their trunks with adhesive tapes under ether anesthesia (load of restraint stress). One hour after the restraint, defecation number was counted and the number was compared with that of the control group. In the experiments using a combination of drugs, the medicament of the present invention was administered to the animals 30 minutes before the restraint, and the other drug was administered 1 hour before the restraint.

[2] = system: defecation induced by forced swimming stress in rats; settings: rat; cited from earlier work
animal model = settings: cited from earlier work
[3] = system: patients with irritable bowel syndrome; settings: double-blind test; cited from earlier work

SMILES | Suppression of the increase of defecation number induced by the restraint (in words) [1] | Suppression rate of defecation number (%) ([1]; oral, 10 mg/kg) | Suppression rate of defecation number (%) ([1]; oral, 30 mg/kg) | Suppression rate of defecation number (%) ([1]; oral, 100 mg/kg) | also measured
c1cnc(N2CCNCC2)nc1 [1-PP, 1-(2-pyrimidinyl)piperazine] |  |  |  |  | Effect on the defecation-suppressing action of the medicament of the present invention (combination of drugs) [1]: inhibited; also recorded: antagonized
CCCN(CCC)C1CCc2cccc(O)c2C1 (stereo not shown) [8-OH-DPAT, 8-hydroxy-2-(di-n-propylamino)tetralin] | the defecation due to the stress was suppressed |  |  |  | Suppression rate of defecation number (%) ([1]; intraperitoneal, 0.03 mg/kg): 25%; Suppression rate of defecation number (%) ([1]; intraperitoneal, 0.1 mg/kg): 74* %; Suppression rate of defecation number (%) ([1]; intraperitoneal, 0.3 mg/kg): 97* %
CN(C)CCC=C1c2ccccc2CCc2ccccc21 [Amitriptyline, amitriptyline] |  | 17 | 6% | 69* % | Suppressive action on stress-induced defecation at a high dose (in words) ([1]; oral): exhibited significant suppressive actions; Efficacy on stress-induced defecation at a lower dose (in words) ([1]; oral): no efficacy
O=C1CC2(CCCC2)CC(=O)N1CCCCN1CCN(c2ncccn2)CC1 [Buspirone, buspirone] | failed to exhibit significant efficacy | 12 | 12% | 44% | Defecation suppressing activity, forced swimming stress [2]: exhibited significant defecation suppressing activity
c1ccc2c(c1)OC[C@H](CNCCCOc1ccc3c(c1)OCO3)O2 [Compound No. 1, 5-[3 [(2S)-(1,4-benzodioxan-2-ylmethyl)amino]propoxy]-1,3-benzo-dioxol] | dose-dependently suppressed |  |  |  | Anxiolytic activity (animal model): anxiolytic activity of the medicament of the present invention was observed; Suppression rate of defecation number (%) ([1]; oral, 0.3 mg/kg): 29%; Suppression rate of defecation number (%) ([1]; oral, 1 mg/kg): 45* %; Suppression rate of defecation number (%) ([1]; oral, 3 mg/kg): 81* %
CN1C(=O)CN=C(c2ccccc2)c2cc(Cl)ccc21 [Diazepam, diazepam] |  | 36 | 77* % |  | Suppression rate of defecation number (%) ([1]; oral, 3 mg/kg): 26%; Suppressive action on stress-induced defecation at a high dose (in words) ([1]; oral): exhibited significant suppressive actions; Efficacy on stress-induced defecation at a lower dose (in words) ([1]; oral): no efficacy
CNCCC(Oc1ccc(C(F)(F)F)cc1)c1ccccc1 (stereo not shown) [Fluoxetin] |  | 24 | 15% | 26% | 
O=C1[C@@H]2[C@H]3CC[C@H](C3)[C@@H]2C(=O)N1CCCCN1CCN(c2ncccn2)CC1 [Tandospirone, tandospirone] | failed to exhibit significant efficacy |  | 8% | 4% | Therapeutic efficacy in irritable bowel syndrome compared with a placebo [3]: failed to give a significant difference; Suppression rate of defecation number (%) ([1]; oral, 300 mg/kg): 44%
COc1ccccc1N1CCN(CC(C(=O)NC(C)(C)C)c2ccccc2)CC1 (stereo not shown) [WAY100135, N-tert-butyl-3-(4-(2-methoxyphenyl)piperazin-1-yl)-2-phenyl-propanamide] |  |  |  |  | Effect on the defecation-suppressing action of the medicament of the present invention (combination of drugs) [1]: inhibited
